≈ marks a conversion by molar mass, not a printed value. Where two headings read alike, the source gives them in different places.
Key:
[1] = tested on: methicillin-resistant Staphylococcus aureus MRSA-2 (clinical isolate); test: MIC broth microdilution, MRSA-2; format: cell-based; conditions: for MIC: read-out: MIC MRSA-2
Method: (§1) The minimum inhibitory concentration (MIC) for each tested compound was determined by the broth microdilution method as recommended by the Clinical and Laboratory Standards Institute (CLSI). In a 96-well plate, eleven two-fold serial dilutions of each compound were made in a final volume of 100 μL Luria Broth. Each well was inoculated with ˜10^5 bacterial cells at the initial time of incubation, prepared from a fresh log phase culture (OD600 of 0.5 to 1.0 depending on bacterial strain). The MIC was defined as the lowest concentration of compound that prevented bacterial growth after incubating 16 to 18 hours at 37° C. (MIC values were supported by spectrophotometric readings at OD600). DMSO served as our vehicle and negative control in each microdilution MIC assay. DMSO was serially diluted with a top concentration of 1% v/v.
as §1, with “for each compound was” for “for each tested compound was”, “Standards Institute (CLSI).^6 In a” for “Standards Institute (CLSI). In a”, “concentration of test compound that” for “concentration of compound that”, “37° C. The concentration range tested for each compound during this study was 0.10 to 100 μM. DMSO served” for “37° C. (MIC values were supported by spectrophotometric readings at OD600). DMSO served”, “1% v/v. All MIC values were obtained from a minimum of three independent experiments.” for “1% v/v.”

[2] = tested on: MRSA BAA-1707; test: MIC broth microdilution, MRSA BAA-1707; format: cell-based, Staphylococcus aureus; conditions: for MIC: read-out: MIC MRSA BAA-1707
Method: as §1, with “The MIC was defined as the lowest concentration of compound that prevented bacterial growth after incubating 16 to 18 hours at 37° C.” left out
(§2) Each well was inoculated with ˜10^5 bacterial cells at the initial time of incubation, prepared from a fresh log phase culture (OD600 of 0.5 to 1.0 depending on bacterial strain). […] The concentration range tested for each compound during this study was 0.10 to 100 μM. DMSO served as our vehicle and negative control in each microdilution MIC assay. DMSO was serially diluted with a top concentration of 1% v/v. All MIC values were obtained from a minimum of three independent experiments.

[3] = tested on: methicillin-resistant Staphylococcus epidermidis (MRSE strain ATCC 35984); test: MIC broth microdilution, MRSE 35984; format: cell-based; conditions: Table 4
Method: as §1
as §1, with “for each compound was” for “for each tested compound was”, “Standards Institute (CLSI).^6 In a” for “Standards Institute (CLSI). In a”, “concentration of test compound that” for “concentration of compound that”, “37° C. The concentration range tested for each compound during this study was 0.10 to 100 μM. DMSO served” for “37° C. (MIC values were supported by spectrophotometric readings at OD600). DMSO served”, “1% v/v. All MIC values were obtained from a minimum of three independent experiments.” for “1% v/v.”

[4] = tested on: vancomycin-resistant Enterococcus faecium (VRE strain ATCC 700221); test: MIC broth microdilution, VRE 700221; format: cell-based; conditions: Table 4
Method: as §1
as §1, with “for each compound was” for “for each tested compound was”, “Standards Institute (CLSI).^6 In a” for “Standards Institute (CLSI). In a”, “concentration of test compound that” for “concentration of compound that”, “37° C. The concentration range tested for each compound during this study was 0.10 to 100 μM. DMSO served” for “37° C. (MIC values were supported by spectrophotometric readings at OD600). DMSO served”, “1% v/v. All MIC values were obtained from a minimum of three independent experiments.” for “1% v/v.”

[5] = tested on: Acinetobacter baumannii (ATCC 1794); test: MIC broth microdilution, A. baumannii 1794; format: cell-based; conditions: Table 4
Method: as §1
as §1, with “for each compound was” for “for each tested compound was”, “Standards Institute (CLSI).^6 In a” for “Standards Institute (CLSI). In a”, “concentration of test compound that” for “concentration of compound that”, “37° C. The concentration range tested for each compound during this study was 0.10 to 100 μM. DMSO served” for “37° C. (MIC values were supported by spectrophotometric readings at OD600). DMSO served”, “1% v/v. All MIC values were obtained from a minimum of three independent experiments.” for “1% v/v.”

[6] = tested on: Pseudomonas aeruginosa (PAO1); test: MIC broth microdilution, PAO1; format: cell-based; conditions: Table 4
Method: as §1
as §1, with “for each compound was” for “for each tested compound was”, “Standards Institute (CLSI).^6 In a” for “Standards Institute (CLSI). In a”, “concentration of test compound that” for “concentration of compound that”, “37° C. The concentration range tested for each compound during this study was 0.10 to 100 μM. DMSO served” for “37° C. (MIC values were supported by spectrophotometric readings at OD600). DMSO served”, “1% v/v. All MIC values were obtained from a minimum of three independent experiments.” for “1% v/v.”

[7] = tested on: Klebsiella pneumoniae (ATCC 13883); test: MIC broth microdilution, K. pneumoniae 13883; format: cell-based; conditions: Table 4
Method: as §1
as §1, with “for each compound was” for “for each tested compound was”, “Standards Institute (CLSI).^6 In a” for “Standards Institute (CLSI). In a”, “concentration of test compound that” for “concentration of compound that”, “37° C. The concentration range tested for each compound during this study was 0.10 to 100 μM. DMSO served” for “37° C. (MIC values were supported by spectrophotometric readings at OD600). DMSO served”, “1% v/v. All MIC values were obtained from a minimum of three independent experiments.” for “1% v/v.”

[8] = tested on: Escherichia coli clinical isolate (UAEC-1); test: MIC broth microdilution, UAEC-1; format: cell-based; conditions: Table 4
Method: as §1
as §1, with “for each compound was” for “for each tested compound was”, “Standards Institute (CLSI).^6 In a” for “Standards Institute (CLSI). In a”, “concentration of test compound that” for “concentration of compound that”, “37° C. The concentration range tested for each compound during this study was 0.10 to 100 μM. DMSO served” for “37° C. (MIC values were supported by spectrophotometric readings at OD600). DMSO served”, “1% v/v. All MIC values were obtained from a minimum of three independent experiments.” for “1% v/v.”

[9] = tested on: methicillin-sensitive Staphylococcus aureus ATCC 29213; test: MIC broth microdilution, S. aureus 29213; format: cell-based
Method: as §1, with “The MIC was defined as the lowest concentration of compound that prevented bacterial growth after incubating 16 to 18 hours at 37° C.” left out
as §2

[10] = tested on: C. albicans SC5314; test: Fungal MIC susceptibility assay, C. albicans; format: cell-based, Candida albicans; conditions: Table 4; antifungal
Method: (§3) Fungal minimum inhibition concentrations (MICs) were determined using standard microdilution methods according to the Clinical and Laboratory Standards Institute document M27-A3. The test compound concentration ranged from 0.01 to 100 μM. Amphotericin B (AmB) and itraconazole (ITC) (Fisher Scientific) were included as positive controls. DMSO, the vehicle control, was used at ≤1% v/v for these experiments. The fungal M27-A3 standard MIC assay protocol requires the following inoculum preparation protocol: The organisms were cultured onto PDA medium at 35° C. The inoculum is prepared by picking five colonies from 24-hour old culture of Candida spp. or 48-hour old culture of C. neoformans. The inoculum was suspended in 5 ml of sterile water, the resulting suspension was vortexed for 15 seconds and the cell density adjusted (by adding more sterile water) to an OD530=0.30, which yields a suspension of 1×10^6 to 5×10^6 cells per mL. The suspension was diluted 50 times and then 20 times using RPMI 1640 medium to obtain the two times test inoculum (1×10^3 to 5×10^3 cells per mL). The following steps are the same with the standard bacterial MIC protocol using 96-well plates. NOTE: RPMI 1640 medium was used in the fungal MIC assay (for both cell inoculum and compound dilution).

[11] = tested on: C. neoformans ATCC 66031; test: Fungal MIC susceptibility assay, C. neoformans; format: cell-based; conditions: Table 4; antifungal
Method: as §3

SMILES: CCCCCCCCCCCCCCCCn1cc[n+](-c2ccc(Cl)cc2)c1C.[Br-] [Compound 6]
- MIC ([1]; Table 1B): 3.13 µM
- MIC ([1]; Table 3): 3.13 µM
- MIC MRSA-2 ([1]; Table 4): 3.13 µM
- MIC ([2]; Table 1B): 3.13 µM
- MIC ([2]; Table 3): 3.13 µM
- MIC MRSA 1707 ([2]; Table 4): 3.13 µM
- MIC MRSE 35984 [3]: 1.17a micromolar
- MIC VRE 700221 [4]: 1.56 µM
- MIC A. bau. 1794 [5]: 12.5 µM
- MIC PAO1 [6]: >100 µM
- MIC K. pneu. 13883 [7]: 6.25 µM
- MIC UAEC-1 [8]: 6.25 µM
- MIC ([9]; Table 1B): 3.13 µM
- MIC ([9]; Table 3): 3.13 µM

SMILES: C[C@@H]1[C@H](O)[C@@H](C)/C=C/C=C/C=C/C=C/C=C/C=C/C=C/[C@H](O[C@@H]2O[C@H](C)[C@@H](O)[C@H](N)[C@@H]2O)C[C@@H]2O[C@](O)(C[C@@H](O)C[C@@H](O)[C@H](O)CC[C@@H](O)C[C@@H](O)CC(=O)O[C@H]1C)C[C@H](O)[C@H]2C(=O)O [Amp. B, Amphotericin B, reference compound]
- MIC C. albicans SC5314 [10]: 0.78 µM (≈ 0.721 µg/mL)
- MIC C. neof 66031 [11]: 0.1 µM (≈ 0.0924 µg/mL)
